Laboratory results reported in patent US20040157891A1, “Inhibitor of cox” (FUJISAWA PHARMACEUTICAL CO., LTD., priority 2003, published 2004).

Tests used:
[1] = target: T1, COX-II (Homo sapiens, UniProt P35354); assay: Whole blood assay for COX-II (LPS-induced PGE2 production); format: cell-based; conditions: lipopolysaccharide 24 hrs at 37° C.
T1 construct: incubation of the blood with 10 μL of 5 mg/mL lipopolysaccharide for 24 hrs at 37° C. for induction of COX-II; from tissue; host or cells: heparinized fresh human whole blood from volunteers, LPS-stimulated for 24 h; PGE2 read-out
T1 sequence (P35354 18-604): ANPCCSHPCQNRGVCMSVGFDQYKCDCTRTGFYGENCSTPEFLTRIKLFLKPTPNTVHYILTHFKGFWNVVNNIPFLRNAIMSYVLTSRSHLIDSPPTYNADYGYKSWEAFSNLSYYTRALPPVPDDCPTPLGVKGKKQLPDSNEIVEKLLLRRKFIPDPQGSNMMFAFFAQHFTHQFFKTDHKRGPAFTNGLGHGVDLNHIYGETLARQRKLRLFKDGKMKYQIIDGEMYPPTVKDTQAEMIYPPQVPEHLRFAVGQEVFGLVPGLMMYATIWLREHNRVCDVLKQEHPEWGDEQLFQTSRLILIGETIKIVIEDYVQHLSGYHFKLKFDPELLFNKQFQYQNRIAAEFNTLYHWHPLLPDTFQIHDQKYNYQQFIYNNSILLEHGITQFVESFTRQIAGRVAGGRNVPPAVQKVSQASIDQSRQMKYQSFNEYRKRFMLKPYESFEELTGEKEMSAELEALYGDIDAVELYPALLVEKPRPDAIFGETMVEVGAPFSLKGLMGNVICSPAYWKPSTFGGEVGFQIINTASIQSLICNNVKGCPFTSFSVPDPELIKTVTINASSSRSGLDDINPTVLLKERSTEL
Procedure: Whole Blood Assay for COX-II
Fresh blood was collected in heparinized tubes by syringe from volunteers with consent. The subjects had no apparent inflammatory conditions and had not taken any medication for at least 7 days prior to blood collection.
500 μL aliquots of human whole blood were incubated with either 2 μL dimethyl sulfoxide vehicle or 2 μL of a test compound at final concentrations for 15 min at 37° C. This was followed by incubation of the blood with 10 μL of 5 mg/mL lipopolysaccharide for 24 hrs at 37° C. for induction of COX-II. Appropriate PBS treatments (no LPS) were used as blanks. At the end of the incubation, the blood was centrifuged at 6000×g for 5 min at 4° C. to obtain plasma. A 100 μL aliquot of plasma was mixed with 400 μL methanol for protein precipitation. The supernatant was obtained by centrifuging at 6000×g for 5 min at 4° C. and was assayed for prostaglandin E2 (PGE2) using a radioimmunoassay kit after conversion of PGE2 to its methyl oximate derivative according to the manufacturer's procedure.
For a test compound, the results were expressed as percent inhibition of PGE2 production relative to control incubations containing dimethyl sulfoxide vehicle. The data were analyzed by that a test compound at the indicated concentrations was changed log value and was applied simple linear regression. IC50 value was calculated by least squares method.

[2] = target: T2, COX-I (Homo sapiens, UniProt P23219); assay: Whole blood assay for COX-I (TXB2 production); format: cell-based; conditions: 1 hr at 37° C.
T2 construct: Fresh blood was collected by syringe without anticoagulants from volunteers with consent; from tissue; host or cells: fresh human whole blood from volunteers, left to clot; TXB2 read-out
Procedure: Whole blood assay for COX-I
Fresh blood was collected by syringe without anticoagulants from volunteers with consent. The subjects had no apparent inflammatory conditions and had not taken any medication for at least 7 days prior to blood collection.
500 μL Aliquots of human whole blood were immediately incubated with 2 μL of either dimethyl sulfoxide vehicle or a test compound at final concentrations for 1 hr at 37° C. to allow the blood to clot. Appropriate treatments (no incubation) were used as blanks. At the end of the incubation, 5 μL of 250 mM Indomethacin was added to stop the reaction. The blood was centrifuged at 6000×g for 5 min at 4° C. to obtain serum. A 100 μL aliquot of serum was mixed with 400 μL methanol for protein precipitation. The supernatant was obtained by centrifuging at 6000×g for 5 min at 4° C. and was assayed for TXB2 using an enzyme immunoassay kit according to the manufacturer's procedure. For a test compound, the results were expressed as percent inhibition of thromboxane B2(TXB2) production relative to control incubations containing dimethyl sulfoxide vehicle.
The data were analyzed by that a test compound at the indicated concentrations was changed log value and was applied simple linear regression. IC50 value was calculated by least squares method.

[3] = system: arthritic rats; assay: Analgesic activity: effect on adjuvant arthritis in rats (Randall-Selitto); format: in vivo, Lewis rats; conditions: single dose 3.2 mg/kg; mechanical pain threshold of left hind paw 2 hrs after administration; ratio to non-treated rats

T2 sequence (P23219 24-599): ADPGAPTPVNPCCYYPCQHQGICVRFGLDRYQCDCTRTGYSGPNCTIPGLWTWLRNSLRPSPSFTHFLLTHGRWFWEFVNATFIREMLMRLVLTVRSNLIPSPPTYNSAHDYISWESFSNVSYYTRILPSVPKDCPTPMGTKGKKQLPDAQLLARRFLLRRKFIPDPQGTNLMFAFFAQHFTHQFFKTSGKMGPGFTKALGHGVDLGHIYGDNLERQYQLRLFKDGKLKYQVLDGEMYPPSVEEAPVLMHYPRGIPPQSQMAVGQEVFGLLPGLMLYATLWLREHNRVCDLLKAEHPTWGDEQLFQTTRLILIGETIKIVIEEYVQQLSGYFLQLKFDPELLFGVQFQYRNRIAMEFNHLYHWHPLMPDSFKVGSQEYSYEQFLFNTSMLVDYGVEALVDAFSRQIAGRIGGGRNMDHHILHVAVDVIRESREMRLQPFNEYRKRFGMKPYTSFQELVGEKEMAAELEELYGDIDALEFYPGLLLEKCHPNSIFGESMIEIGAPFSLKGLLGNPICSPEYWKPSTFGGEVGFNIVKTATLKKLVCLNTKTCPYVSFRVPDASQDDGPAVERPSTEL

| SMILES | melting point [°C] | IC50 [1] [nM] | IC50 [2] [nM] | The coefficient of analgesic [3] |
| --- | --- | --- | --- | --- |
| COc1ccc(-c2oc(C(=O)c3ccccc3)nc2-c2ccc(OC)nc2)cc1 [Example 73, [5-(4-Methoxyphenyl)-4-(6-methoxy-3-pyridinyl)-1,3-oxazol-2-yl](phenyl)methanone] | 156 to 158 | – | – | – |
| COc1ccc(-c2nc(C(=O)c3ccccc3)oc2-c2ccc(OC)cc2)cc1 [Example 6, [4,5-Bis(4-methoxyphenyl)-1,3-oxazol-2-yl](phenyl)methanone] | 164 to 166 | – | – | – |
| COc1ccc(-c2nc(C3CC3)oc2-c2ccc(OCCO)cc2)cn1 [Example 118, 2-{4-[2-Cyclopropyl-4-(6-methoxy-3-pyridinyl)-1,3-oxazol-5-yl]phenoxy}ethanol] | – | > 100 | < 10 | >1.5 |
| COc1ccc(-c2nc(C(F)F)oc2-c2ccc(OCCO)cc2)cc1 [Example 12, 2-{4-[2-(Difluoromethyl)-4-(4-methoxyphenyl)-1,3-oxazol-5-yl]phenoxy}ethanol] | 114 to 116 | > 100 | < 10 | >1.5 |
| COc1ccc(-c2nc(C(C)=O)oc2-c2ccc(OC)cc2)cc1 [Example 5, 1-[4,5-Bis(4-methoxyphenyl)-1,3-oxazol-2-yl]ethanone] | 139 to 140 | – | – | – |
| COc1ccc(-c2nc(C(N)=O)oc2-c2ccc(OC)cc2)cc1 [Example 2, 4,5-Bis(4-methoxyphenyl)-1,3-oxazole-2-carboxamide] | 133 to 135 | – | – | – |
| COc1ccc(-c2oc(CO)nc2-c2ccc(C#N)cc2)cc1 [Example 79, 4-[2-(Hydroxymethyl)-5-(4-methoxyphenyl)-1,3-oxazol-4-yl]benzonitrile] | 151 to 153 | – | – | – |
| COc1ccc(-c2nc(C(F)F)oc2-c2ccc(OCCO)cc2)cn1 [Example 33, 2-{4-[2-(Difluoromethyl)-4-(6-methoxy-3-pyridinyl)-1,3-oxazol-5-yl]phenoxy}ethanol] | 126 to 128 | > 100 | < 10 | >1.5 |
| COc1ccc(-c2oc(C(F)F)nc2-c2ccc(OC)nc2)cc1 [Example 77, 5-[2-(Difluoromethyl)-5-(4-methoxyphenyl)-1,3-oxazol-4-yl]-2-methoxypyridine] | 87 to 89 | – | – | – |
| COc1ccc(-c2nc(C(F)(F)F)oc2-c2ccc(OCCNC(N)=O)cc2)cn1 [Example 55, N-(2-{4-[4-(6-Methoxy-3-pyridinyl)-2-(trifluoromethyl)-1,3-oxazol-5-yl]phenoxy}ethyl)urea] | – | > 100 | < 10 | >1.5 |
| CCOC(=O)c1nc(-c2ccc(OC)cc2)c(-c2ccc(OC)cc2)o1 [Example 1-2, Ethyl 4,5-bis(4-methoxyphenyl)-1,3-oxazole-2-carboxylate] | 95 to 97 | – | – | – |
| COCc1nc(-c2ccc(OC)cc2)c(-c2ccc(C#N)cc2)o1 [Example 80-3, 4-[2-(Methoxymethyl)-4-(4-methoxyphenyl)-1,3-oxazol-5-yl]benzonitrile] | 85 to 86 | – | – | – |
| COc1ccc(-c2nc(C3CC3)oc2-c2ccc(OCCNS(C)(=O)=O)cc2)cn1 [Example 122, N-(2-{4-[2-Cyclopropyl-4-(6-methoxy-3-pyridinyl)-1,3-oxazol-5-yl]phenoxy}ethyl)methanesulfonamide] | – | > 100 | < 10 | >1.5 |
| COc1ccc(-c2nc(C(F)(F)F)oc2-c2ccc(OCCNS(C)(=O)=O)cc2)cn1 [Example 54, N-(2-{4-[4-(6-Methoxy-3-pyridinyl)-2-(trifluoromethyl)-1,3-oxazol-5-yl]phenoxy}ethyl)methanesulfonamide] | – | > 100 | < 10 | >1.5 |
